This note sets out measurements from patent publication US11738082B2, “High concentration protein formulations with reduced viscosity” (Bhami's Research Laboratory, Pvt. Ltd., priority 2017, dated 2023).

Residues, ends and D or L forms follow the SMILES beside them.

The subject of the data set is Human Gamma Globulin (HGG), GLOBUCEL®. Kind of data set: Viscosity of aqueous solutions of Human Gamma Globulin (Cambridge VISCOlab5000 or DV2T cone and plate viscometer).
Setting [1] is: HGG […], excipient 5%, 25 mM citrate buffer pH 6.0.
Setting [2] is: HGG 220 mg/mL, excipient 10 mg/mL, citrate buffer pH 6.0, 25° C.
[3] abbreviates: HGG 220 mg/mL, excipient 10 mg/mL, histidine buffer pH 6.0, 25° C.
The mark [4] stands for this setting: HGG 220 mg/mL, excipient 10 mg/mL, phosphate buffer pH 6.0, 25° C.

Protocol: Commercially obtained human gamma globulin (HGG), GLOBUCEL® (50 mg/mL) containing pharmaceutical excipients (Maltose) was dialyzed against water for 24 hr at 4° C. with three changes. To the aqueous solution of HGG, either histidine or phosphate or citrate buffer was added from the stock concentration of 1000 mM for histidine buffer or 1000 mM for citrate buffer or 1000 mM for phosphate buffer, pH 6.0 to get a final concentration of 25 mM each. The HGG solutions in various buffers were concentrated to a final volume of less than 150 μL using Vivaspin centrifugal concentrators (Sartorius). The collected protein sample was stored at 4° C. […] The protein concentrations were experimentally determined using the extinction coefficient of 1.4
[formula] at 280 nm. The viscosities of the solution were measured either using a Cambridge Viscometer, VISCOlab5000 using 70 μL of sample at 25° C. or using a DV2T cone and plate viscometer using 1.5 mL of sample at 25° C. at extrapolated zero shear rate.
Commercially obtained human gamma globulin (HGG), GLOBUCEL® (50 mg/mL) containing pharmaceutical excipients (Maltose) was dialyzed against water for 24 hr at 4° C. with three changes. To the aqueous solution of HGG, either citrate-phosphate buffer pH 5.0 or citrate-phosphate buffer pH 6.0 or citrate-phosphate buffer pH 7.0 was added from the stock concentration of 1000 mM for citrate buffer at pH 5.0 or pH 6.0 or pH 7.0 to get a final concentration of 25 mM each. The HGG solutions in various pH buffers were concentrated to a final volume of less than 150 μL using Vivaspin centrifugal concentrators (Sartorius). The collected protein sample was stored at 4° C. […] The protein concentrations were experimentally determined using the extinction coefficient of 1.4
Commercially obtained human gamma globulin (HGG), GLOBUCEL® (50 mg/mL) containing pharmaceutical excipients (Maltose) was dialyzed against water for 24 hr at 4° C. with three changes. To the aqueous solution of HGG, phosphate/citrate/histidine Buffer was added from the stock concentration of 1000 mM phosphate/citrate/histidine buffer, pH 6.0 to get a final concentration of 25 mM. To the buffered HGG different amino acid or its derivative was added individually and mixed until complete dissolution. The excipient containing HGG was concentrated to a final volume of less than 150 μL using Vivaspin centrifugal concentrators (Sartorius). The collected protein sample was stored at 4° C. […] The protein concentrations were experimentally determined using the extinction coefficient of 1.4
Commercially obtained human gamma globulin (HGG), GLOBUCEL® (50 mg/mL) containing pharmaceutical excipients (Maltose) was dialyzed against water for 24 hr at 4° C. with three changes. To the aqueous solution of HGG, phosphate/citrate/histidine Buffer was added from the stock concentration of 1000 mM phosphate/citrate/histidine buffer, pH 6.0 to get a final concentration of 25 mM. To the buffered HGG, different nucleosides or nucleotides or its derivative was added individually and mixed until complete dissolution. The excipient containing HGG was concentrated to a final volume of less than 150 μL using Vivaspin centrifugal concentrators (Sartorius). The collected protein sample was stored at 4° C.

Regarding `Nc1ncccn1` [2-Aminopyrimidine], the “Viscosity (cP) @ 25° C.” value (HGG 120 mg/mL, excipient 10 mg/mL (105 mM), 25 mM phosphate buffer pH 6.0) was 87 cP.

As to `CC(=O)Oc1ccccc1C(=O)O` [Acetyl salicylic acid, reference compound], the “Viscosity (cP) @ 25° C.” value (HGG 283 mg/mL, excipient 2.5 mg/mL (14 mM), 25 mM histidine buffer pH 6.0) is on record as 43 cP.

As to `C[C@H](N)C(=O)O` [Alanine], the “Viscosity (cP) @ 25° C.” value (HGG 222 mg/mL, excipient 10 mg/mL (112 mM), 25 mM phosphate buffer pH 6.0) is 112 cP.

On to `Cl.N` [Ammonium chloride], for which the “Viscosity (cP) @ 25° C.” value was found to be 53 cP (HGG 182 mg/mL, excipient 5.35 mg/mL (100 mM), 25 mM phosphate buffer pH 6.0) and 21 cP (HGG 205 mg/mL, excipient 40 mg/mL (747 mM), 25 mM phosphate buffer pH 6.0).

Regarding `O=C[C@@H](O)[C@H](O)[C@H](O)CO` [Arabinose], the “Viscosity (cP) @ 25° C.” value (HGG 186 mg/mL, excipient 10 mg/mL (67 mM), 25 mM citrate buffer pH 6.0) came out at 65 cP.

For the compound `N=C(N)NCCC[C@H](N)C(=O)O` [Arginine], the “Viscosity (cP) @ 25° C.” value is given as 85 cP (HGG 205 mg/mL, excipient 10 mg/mL (58 mM), 25 mM phosphate buffer pH 6.0); 197 cP (HGG 220 mg/mL, excipient 10 mg/mL (58 mM), 25 mM phosphate buffer pH 6.0); 87 cP (HGG 247 mg/mL, excipient 10 mg/mL (58 mM), 25 mM citrate buffer pH 6.0).

Turning to `COC(=O)[C@H](Cc1ccccc1)NC(=O)[C@@H](N)CC(=O)O` [Aspartame] (H-Asp-Phe-OMe), the “Viscosity (cP) @ 25° C.” value came out at 51 cP (HGG 140 mg/mL, excipient 10 mg/mL (34 mM), 25 mM citrate buffer pH 6.0) and 143 cP (HGG 218 mg/mL, excipient 10 mg/mL (34 mM), 25 mM phosphate buffer pH 6.0).

Take `Nc1ccn([C@@H]2O[C@H](CO)[C@@H](O)[C@H]2O)c(=O)n1` [Cytidine]: for the setting “HGG 218 mg/mL, excipient 10 mg/mL (41 mM), 25 mM phosphate buffer pH 6.0”, the “Viscosity (cP) @ 25° C.” value is on record as 203 cP.

Regarding `OC[C@@H](O)[C@@H](O)[C@H](O)[C@@H](O)CO` [D-sorbitol], the “Viscosity (cP) @ 25° C.” value (HGG 182 mg/mL, excipient 10 mg/mL (56 mM), 25 mM citrate buffer pH 6.0) is 45 cP and the “Viscosity (cP) @ 25° C.” value (HGG 240 mg/mL, excipient 10 mg/mL (56 mM), 25 mM phosphate buffer pH 6.0) was determined as 176 cP.

As to `C[S+](C)[O-]` [DMSO], the “Viscosity (cP) @ 25° C.” value runs as follows: (HGG 204 mg/mL, excipient 5%, 25 mM phosphate buffer pH 6.0) 121 cP; under setting [1], 28 cP.

Consider `CCO` [Ethanol], for which the “Viscosity (cP) @ 25° C.” value by setting is: (HGG 182 mg/mL, excipient 5%, 25 mM phosphate buffer pH 6.0) 53 cP; under setting [1], 5 cP.

On to `O=C(CO)[C@@H](O)[C@H](O)[C@H](O)CO` [Fructose], for which the “Viscosity (cP) @ 25° C.” value (HGG […], excipient 10 mg/mL (56 mM), 25 mM citrate buffer pH 6.0) was determined as 69 cP.

As for `NCC(=O)O` [Glycine], the “Viscosity (cP) @ 25° C.” value runs as follows: (HGG 206 mg/mL, excipient 10 mg/mL ([…]), 25 mM phosphate buffer pH 6.0) 63 cP; (HGG 208 mg/mL, excipient 10 mg/mL ([…]), 25 mM citrate buffer pH 6.0) 73 cP; (HGG 228 mg/mL, excipient 10 mg/mL ([…]), 25 mM phosphate buffer pH 6.0) 186 cP.

On to `N[C@@H](Cc1c[nH]cn1)C(=O)O` [Histidine], for which the “Viscosity (cP) @ 25° C.” value (HGG 180 mg/mL, excipient 10 mg/mL (65 mM), 25 mM phosphate buffer pH 6.0) was 31 cP.

As for `N=C(N)NCCCC[C@H](N)C(=O)O` [Homoarginine], under “HGG 188 mg/mL, excipient 10 mg/mL (45 mM), 25 mM phosphate buffer pH 6.0”, the “Viscosity (cP) @ 25° C.” value amounted to 28 cP.

As to `O=C1O[C@H]([C@@H](O)CO)C(O)=C1O` [L-Ascorbic acid], under “HGG 214 mg/mL, excipient 10 mg/mL (57 mM), 25 mM phosphate buffer pH 6.0”, the “Viscosity (cP) @ 25° C.” value turned out to be 59 cP.

Take `NCCCC[C@H](N)C(=O)O` [Lysine]: the “Viscosity (cP) @ 25° C.” value (HGG 267 mg/mL, excipient 10 mg/mL (55 mM), 25 mM phosphate buffer pH 6.0) came out at 199 cP.

`OC[C@@H](O)[C@@H](O)[C@H](O)[C@H](O)CO` [Mannitol]: the “Viscosity (cP) @ 25° C.” value (HGG […], excipient 10 mg/mL (55 mM), 25 mM citrate buffer pH 6.0) is 65 cP.

Regarding `CSCC[C@H](N)C(=O)O` [Methionine], the “Viscosity (cP) @ 25° C.” value (HGG 228 mg/mL, excipient 10 mg/mL (67 mM), 25 mM phosphate buffer pH 6.0) was 170 cP.

As for `COC(=O)c1cccnc1` [Methylnicotinate], the “Viscosity (cP) @ 25° C.” value (HGG 216 mg/mL, excipient 10 mg/mL (73 mM), 25 mM phosphate buffer pH 6.0) is given as 84 cP.

As to `NC(=O)c1cccnc1` [Nicotinamide], the “Viscosity (cP) @ 25° C.” value amounted to 26 cP (HGG 105 mg/mL, excipient 10 mg/mL (82 mM), 25 mM histidine buffer pH 6.0); 21 cP (HGG 191 mg/mL, excipient 10 mg/mL (82 mM), 25 mM phosphate buffer pH 6.0); 72 cP (HGG 219 mg/mL, excipient 10 mg/mL (82 mM), 25 mM citrate buffer pH 6.0); 43 cP (HGG 224 mg/mL, excipient 10 mg/mL (82 mM), 25 mM histidine buffer pH 6.0); 76 cP (HGG 250 mg/mL, excipient 10 mg/mL (82 mM), 25 mM phosphate buffer pH 6.0). Also, the “Viscosity, cP” value is 72 cP under setting [2], 43 cP under setting [3] and 49 cP under setting [4].

For the compound `O=C(O)c1cccnc1` [Nicotinic acid (acid form)], the “Viscosity, cP” value under setting [2] is on record as 20 cP; the “Viscosity, cP” value under setting [3] amounted to 18 cP; the “Viscosity, cP” value under setting [4] came to 20 cP; the “Viscosity, cP” value (HGG 260 mg/mL, nicotinic acid (acid form) 1 mg/mL, 25 mM histidine buffer pH 6.0, 25° C.) was determined as 85 cP; the “Viscosity, cP” value (HGG 260 mg/mL, nicotinic acid (acid form) 5 mg/mL, 25 mM histidine buffer pH 6.0, 25° C.) amounted to 68 cP; the “Viscosity, cP” value (HGG 260 mg/mL, nicotinic acid (acid form) 10 mg/mL, 25 mM histidine buffer pH 6.0, 25° C.) is on record as 52 cP. For the same compound, the “Viscosity, cP” value came to 41 cP (HGG 260 mg/mL, nicotinic acid (acid form) 15 mg/mL, 25 mM histidine buffer pH 6.0, 25° C.); 63 cP (HGG 274 mg/mL, in the presence of nicotinic acid (acid form), 25 mM histidine buffer pH 6.0, 20° C.); 41 cP (HGG 274 mg/mL, in the presence of nicotinic acid (acid form), 25 mM histidine buffer pH 6.0, 25° C.); 35 cP (HGG 274 mg/mL, in the presence of nicotinic acid (acid form), 25 mM histidine buffer pH 6.0, 30° C.). For the same compound, the “Viscosity (cP) @ 25° C.” value by setting is: (HGG 231 mg/mL, excipient 10 mg/mL (81 mM), 25 mM histidine buffer pH 6.0) 23 cP; (HGG 246 mg/mL, excipient 10 mg/mL (81 mM), 25 mM citrate buffer pH 6.0) 48 cP; (HGG 250 mg/mL, excipient 10 mg/mL (81 mM), 25 mM phosphate buffer pH 6.0) 30 cP; (HGG 277 mg/mL, excipient 10 mg/mL (81 mM), 25 mM citrate buffer pH 6.0) 123 cP; (HGG 342 mg/mL, excipient 10 mg/mL (81 mM), 25 mM histidine buffer pH 6.0) 178 cP.

With `O=C([O-])c1cccnc1.[Na+]` [Nicotinic acid Sodium Salt], the “Viscosity (cP) @ 25° C.” value (HGG 202 mg/mL, excipient 10 mg/mL (69 mM), 25 mM phosphate buffer pH 6.0) is recorded as 29 cP; the “Viscosity (cP) @ 25° C.” value (HGG 203 mg/mL, excipient 10 mg/mL (69 mM), 25 mM histidine buffer pH 6.0) turned out to be 21 cP; the “Viscosity (cP) @ 25° C.” value (HGG 225 mg/mL, excipient 10 mg/mL (69 mM), 25 mM phosphate buffer pH 6.0) turned out to be 95 cP; the “Viscosity (cP) @ 25° C.” value (HGG 235 mg/mL, excipient 10 mg/mL (69 mM), 25 mM histidine buffer pH 6.0) is 140 cP; the “Viscosity (cP) @ 25° C.” value (HGG 236 mg/mL, excipient […] (81 mM), 25 mM histidine buffer pH 6.0) stood at 83 cP; the “Viscosity (cP) @ 25° C.” value (HGG […], excipient 10 mg/mL (69 mM), 25 mM citrate buffer pH 6.0) is on record as 71 cP. In addition, the “Viscosity, cP” value by setting is: under setting [3], 81 cP; under setting [4], 95 cP; (HGG 225 mg/mL (footnote), excipient 10 mg/mL, citrate buffer pH 6.0, 25° C.) 71^$ cP.

Take `CC(=O)[O-].[K+]` [Potassium acetate]: the “Viscosity (cP) @ 25° C.” value (HGG 228 mg/mL, excipient 40 mg/mL (408 mM), 25 mM phosphate buffer pH 6.0) was 172 cP.

On to `O=C(O)[C@@H]1CCCN1` [Proline], for which the “Viscosity (cP) @ 25° C.” value by setting is: (HGG […], excipient 10 mg/mL (87 mM), 25 mM citrate buffer pH 6.0) 55 cP; (HGG […], excipient 10 mg/mL (87 mM), 25 mM phosphate buffer pH 6.0) 68 cP.

`CC(=O)C(=O)[O-].[Na+]` [Pyruvate sodium salt]: where the note is “HGG 213 mg/mL, excipient 10 mg/mL (91 mM), 25 mM phosphate buffer pH 6.0”, the “Viscosity (cP) @ 25° C.” value is given as 171 cP.

As for `N[C@@H](CO)C(=O)O` [Serine], the “Viscosity (cP) @ 25° C.” value (HGG 238 mg/mL, excipient 10 mg/mL (95 mM), 25 mM phosphate buffer pH 6.0) is 135 cP.

As to `CC(=O)[O-].[Na+]` [Sodium Acetate], the “Viscosity (cP) @ 25° C.” value (HGG 174 mg/mL, excipient […] (100 mM), 25 mM phosphate buffer pH 6.0) stood at 19 cP.

For the compound `OC[C@H]1O[C@@](CO)(O[C@H]2O[C@H](CO)[C@@H](O)[C@H](O)[C@H]2O)[C@@H](O)[C@@H]1O` [Sucrose], the “Viscosity (cP) @ 25° C.” value reads like this: (HGG 192 mg/mL, excipient 20 mg/mL (58 mM), 25 mM citrate buffer pH 6.0) 76 cP; (HGG 204 mg/mL, excipient 20 mg/mL (58 mM), 25 mM phosphate buffer pH 6.0) 190 cP.
